In brackets after ≈: the same amount, converted by molar mass.
Tests used:
[1] = Distribution coefficient, log D of the compound at pH 7.4 by chromatographic method; type: physicochemical
[2] = molecular target: Bromodomain-containing protein 4 (Homo sapiens, UniProt O60885, Y390A)
[3] = molecular target: Bromodomain-containing protein 3 (Homo sapiens, UniProt Q15059, Y37A); assay: Binding affinity to BRD3 6-His-Thr BRD3 (1 to 435) BD2 (unknown origin) harboring BD1 Y37A mutant
[4] = Permeability across phosphatidyl choline membrane at pH 7.4 after 3 hrs by HPLC with UV detection method; type: ADME; conditions: not told, read-out: permeability
[5] = molecular target: Bromodomain-containing protein 2 (Homo sapiens, UniProt P25440, Y113A)
Sequence of Bromodomain-containing protein 2 (Homo sapiens, UniProt P25440, Y113A) (P25440 whole entry Y113A): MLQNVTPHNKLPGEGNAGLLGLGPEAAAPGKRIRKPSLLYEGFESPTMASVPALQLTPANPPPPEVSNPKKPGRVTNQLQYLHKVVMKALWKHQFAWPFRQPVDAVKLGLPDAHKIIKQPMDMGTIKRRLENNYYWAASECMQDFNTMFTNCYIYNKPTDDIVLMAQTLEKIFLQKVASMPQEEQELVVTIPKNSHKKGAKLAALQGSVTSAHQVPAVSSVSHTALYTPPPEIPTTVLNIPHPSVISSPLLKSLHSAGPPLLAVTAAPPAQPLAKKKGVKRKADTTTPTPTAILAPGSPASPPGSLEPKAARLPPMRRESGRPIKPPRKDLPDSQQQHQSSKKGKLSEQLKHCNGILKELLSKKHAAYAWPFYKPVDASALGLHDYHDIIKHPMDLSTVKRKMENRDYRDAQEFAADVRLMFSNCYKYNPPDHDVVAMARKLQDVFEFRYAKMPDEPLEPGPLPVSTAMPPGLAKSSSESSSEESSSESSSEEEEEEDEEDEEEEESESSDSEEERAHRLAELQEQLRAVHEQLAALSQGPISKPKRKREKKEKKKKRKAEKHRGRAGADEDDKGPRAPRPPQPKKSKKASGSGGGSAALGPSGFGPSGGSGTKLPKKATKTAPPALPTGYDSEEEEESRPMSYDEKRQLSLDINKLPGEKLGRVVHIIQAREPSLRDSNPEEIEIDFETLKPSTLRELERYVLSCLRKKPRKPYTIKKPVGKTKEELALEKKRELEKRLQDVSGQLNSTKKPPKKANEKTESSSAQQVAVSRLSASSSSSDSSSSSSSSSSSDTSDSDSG

[6] = molecular target: Bromodomain-containing protein 2 (Homo sapiens, UniProt P25440, Y386A)
Sequence of Bromodomain-containing protein 2 (Homo sapiens, UniProt P25440, Y386A) (P25440 whole entry Y386A): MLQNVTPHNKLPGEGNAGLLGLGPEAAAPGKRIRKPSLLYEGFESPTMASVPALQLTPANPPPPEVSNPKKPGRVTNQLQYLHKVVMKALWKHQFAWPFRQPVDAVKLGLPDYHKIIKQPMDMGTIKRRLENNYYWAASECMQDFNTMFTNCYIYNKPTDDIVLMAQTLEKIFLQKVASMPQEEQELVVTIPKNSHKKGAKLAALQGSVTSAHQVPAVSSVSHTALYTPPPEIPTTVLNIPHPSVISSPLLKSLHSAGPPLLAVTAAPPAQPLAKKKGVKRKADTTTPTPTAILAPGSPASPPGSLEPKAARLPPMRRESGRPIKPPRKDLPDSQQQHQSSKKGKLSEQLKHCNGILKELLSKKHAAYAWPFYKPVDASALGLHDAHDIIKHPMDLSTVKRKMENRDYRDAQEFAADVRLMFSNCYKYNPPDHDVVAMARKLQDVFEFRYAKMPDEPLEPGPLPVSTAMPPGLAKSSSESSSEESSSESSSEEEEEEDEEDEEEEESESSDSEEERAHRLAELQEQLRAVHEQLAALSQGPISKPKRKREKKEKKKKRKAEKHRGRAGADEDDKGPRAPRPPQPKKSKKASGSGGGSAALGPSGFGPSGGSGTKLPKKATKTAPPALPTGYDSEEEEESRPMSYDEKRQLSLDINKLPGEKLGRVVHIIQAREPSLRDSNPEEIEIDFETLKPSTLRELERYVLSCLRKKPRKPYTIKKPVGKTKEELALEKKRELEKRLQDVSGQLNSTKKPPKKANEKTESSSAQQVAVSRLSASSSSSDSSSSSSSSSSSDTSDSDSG

[7] = Solubility of the compound in phosphate buffered saline at pH 7.4 after 1 hr by CLND method; type: physicochemical
[8] = molecular target: Bromodomain testis-specific protein (Homo sapiens, UniProt Q58F21, Y66A); assay: Binding affinity to 6-His-FLAG-Tev-BRDT BD2 (1 to 397) (unknown origin) harboring BD1 Y66A mutant
[9] = molecular target: Bromodomain-containing protein 4 (Homo sapiens, UniProt O60885, Y97A)
[10] = molecular target: Bromodomain-containing protein 3 (Homo sapiens, UniProt Q15059, Y348A); assay: Binding affinity to 6-His-Thr BRD3 (1 to 435) BD1 (unknown origin) harboring BD2 Y348A mutant
Sequence of Bromodomain-containing protein 3 (Homo sapiens, UniProt Q15059, Y348A) (Q15059 2-726 Y348A limits assumed): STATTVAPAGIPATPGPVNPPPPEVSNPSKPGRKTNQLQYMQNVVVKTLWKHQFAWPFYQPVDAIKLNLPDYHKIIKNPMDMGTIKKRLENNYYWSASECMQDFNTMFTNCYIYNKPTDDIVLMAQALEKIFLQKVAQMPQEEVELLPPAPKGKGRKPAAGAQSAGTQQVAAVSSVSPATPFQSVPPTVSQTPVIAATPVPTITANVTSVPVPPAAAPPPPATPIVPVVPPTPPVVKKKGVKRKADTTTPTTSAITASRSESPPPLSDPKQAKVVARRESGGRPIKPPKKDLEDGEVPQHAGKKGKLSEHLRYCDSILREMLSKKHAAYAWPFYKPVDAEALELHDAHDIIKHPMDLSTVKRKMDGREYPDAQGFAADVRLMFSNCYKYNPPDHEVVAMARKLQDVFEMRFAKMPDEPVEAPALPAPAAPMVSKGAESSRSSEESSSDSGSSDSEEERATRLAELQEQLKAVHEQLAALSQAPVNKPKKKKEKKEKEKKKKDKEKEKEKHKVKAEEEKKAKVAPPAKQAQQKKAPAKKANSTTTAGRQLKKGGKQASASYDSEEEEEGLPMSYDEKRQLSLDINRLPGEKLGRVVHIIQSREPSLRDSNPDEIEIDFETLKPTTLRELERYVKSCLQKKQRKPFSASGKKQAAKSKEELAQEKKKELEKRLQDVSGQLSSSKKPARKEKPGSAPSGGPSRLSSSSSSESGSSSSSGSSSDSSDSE

[11] = molecular target: Bromodomain testis-specific protein (Homo sapiens, UniProt Q58F21, Y309A); assay: Binding affinity to 6-His-FLAG-Tev-BRDT BD1 (1 to 397) (unknown origin) harboring BD2 Y309A mutant
[12] = Lipophilicity, log P of the compound; type: physicochemical; conditions: octanol/water

Sequence of Bromodomain-containing protein 3 (Homo sapiens, UniProt Q15059, Y37A) (Q15059 whole entry, looked up, stated change not applied): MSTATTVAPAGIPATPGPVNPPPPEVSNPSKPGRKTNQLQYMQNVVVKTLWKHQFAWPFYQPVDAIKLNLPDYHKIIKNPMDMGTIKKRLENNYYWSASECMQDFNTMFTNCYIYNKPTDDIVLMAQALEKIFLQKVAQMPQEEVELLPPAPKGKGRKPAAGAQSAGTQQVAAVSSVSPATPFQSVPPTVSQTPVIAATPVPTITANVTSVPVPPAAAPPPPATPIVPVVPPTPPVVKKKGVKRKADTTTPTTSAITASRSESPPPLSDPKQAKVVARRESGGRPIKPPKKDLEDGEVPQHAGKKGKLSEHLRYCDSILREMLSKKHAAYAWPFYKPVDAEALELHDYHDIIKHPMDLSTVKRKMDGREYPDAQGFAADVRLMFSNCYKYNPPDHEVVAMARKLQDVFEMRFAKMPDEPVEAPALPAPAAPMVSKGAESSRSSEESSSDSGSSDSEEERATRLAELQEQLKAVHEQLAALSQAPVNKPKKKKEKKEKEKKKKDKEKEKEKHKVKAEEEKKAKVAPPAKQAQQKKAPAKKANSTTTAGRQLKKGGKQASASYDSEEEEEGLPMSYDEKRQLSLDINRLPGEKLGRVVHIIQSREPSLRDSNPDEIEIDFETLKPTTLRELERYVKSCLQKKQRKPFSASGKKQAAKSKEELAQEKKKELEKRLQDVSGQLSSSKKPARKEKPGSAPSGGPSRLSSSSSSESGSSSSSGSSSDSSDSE

SMILES	chromatographic logD [1]	IC50 [2] [µM]	also measured
Cc1cc2ccnc(NC3CCN(C)CC3)c2[nH]c1=O	0.5		
Cc1ncccc1-c1cnc(NC2CCNCC2)c2[nH]c(=O)c(C)cc12	0.8	6.31	
Cc1cc2cccc(NCCN(C)C)c2[nH]c1=O		25.1	
Cc1cc2c(-c3cncc(Cl)c3)cnc(NC3CCNCC3)c2[nH]c1=O	1.7	6.31	
Cc1cc2cccc(NCCCO)c2[nH]c1=O		5.01	
Cc1cc2c(-c3ccccn3)cnc(NC3CCNCC3)c2[nH]c1=O	1	5.01	
Cc1cc2cccc(NCc3ncc[nH]3)c2[nH]c1=O		50.1	
Cc1cc2cccc(NCCO)c2[nH]c1=O		39.8	
Cc1cc2ccnc(NC3CCNCC3)c2[nH]c1=O	0.6		
Cc1cc2ccnc(NCCC3CCNCC3)c2[nH]c1=O		12.6	
Cc1cc2c(-c3cncc(COC(N)=O)c3)cnc(NC3CCNCC3)c2[nH]c1=O	0.3		
Cc1cc2c(-c3cncnc3)cnc(NC3CCNCC3)c2[nH]c1=O	0.3	15.8	
Cc1cc2ccccc2[nH]c1=O		39.8	
COCCN1CCC(Nc2nccc3cc(C)c(=O)[nH]c23)CC1	1.4		
Cc1cc2ccnc(NCC(C)(C)CN(C)C)c2[nH]c1=O		158	
Cc1cc2cccc(NCCC(=O)O)c2[nH]c1=O		> 50.1	
Cc1cc2ccnc(N[C@@H]3C[C@H]4CC[C@@H](C3)N4C)c2[nH]c1=O	1		
Cc1cc2cccc(NCCCN(C)C)c2[nH]c1=O		10	
Cc1cncc(-c2cnc(NC3CCNCC3)c3[nH]c(=O)c(C)cc23)c1	1.2		IC50 [3]: 20 µM; Papp at 3 h [4]: < 0.3 ×10⁻⁶ cm/s; IC50 [5]: 20 µM; IC50 [6]: 6.31 µM; solubility kinetic at 1 h [7]: ≥ 207 µM; IC50 [8]: 31.6 µM; IC50 [10]: 7.94 µM; IC50 [11]: 7.94 µM; logP [12]: 2.4
CCCNc1cccc2cc(C)c(=O)[nH]c12		> 50.1	
COCCNc1cccc2cc(C)c(=O)[nH]c12		> 50.1	
Cc1cc2ccnc(NC3CCN(C4CC4)CC3)c2[nH]c1=O	2.8		
Cc1cncc(-c2cnc(NC3CCNCC3)c3[nH]c(=O)c(C)cc23)c1C	1.4	7.94	
Cc1cc2ccnc(N[C@@H]3CCCNC3)c2[nH]c1=O		15.8	
Cc1cc2ccnc(N[C@H]3C[C@H]4CC[C@@H](C3)N4C)c2[nH]c1=O	1.2		
Cc1cc2ccnc(NCCC3CCCNC3)c2[nH]c1=O (configuration not stated)		25.1	

Continued, in another order:

chromatographic logD [1]	IC50 [2] [µM]	SMILES	also measured
0	0.794	Cc1cc2c(-c3cn[nH]c3)cnc(NC3CCNCC3)c2[nH]c1=O	
1.3	0.631	Cc1cc2c(-c3cccc(O)c3)cnc(NC3CCNCC3)c2[nH]c1=O	
0.9	3.16	Cc1ccncc1-c1cnc(NC2CCNCC2)c2[nH]c(=O)c(C)cc12	
1.1	1.26	COc1cncc(-c2cnc(NC3CCNCC3)c3[nH]c(=O)c(C)cc23)c1	IC50 [3]: 20 µM; Papp at 3 h [4]: < 0.3 ×10⁻⁶ cm/s; IC50 [5]: 20 µM; IC50 [6]: 3.98 µM; solubility kinetic at 1 h [7]: 250 µM (≈ 91.4 µg/mL); IC50 [8]: 25.1 µM; IC50 [9]: 15.8 µM; IC50 [10]: 6.31 µM; IC50 [11]: 6.31 µM; logP [12]: 2.7
-0.2	3.98	Cc1cc2c(-c3cncc(C(N)=O)c3)cnc(NC3CCNCC3)c2[nH]c1=O	
0.8	2	Cc1cc2c(-c3cccnc3)cnc(NC3CCNCC3)c2[nH]c1=O	
1.4	3.98	COCCCN1CCC(Nc2nccc3cc(C)c(=O)[nH]c23)CC1	
1.1	1	Cc1ccc(-c2cnc(NC3CCNCC3)c3[nH]c(=O)c(C)cc23)cn1	
0.4	1.26	Cc1cc2c(-c3cc[nH]n3)cnc(NC3CCNCC3)c2[nH]c1=O	
1.2	0.126	Cc1cc2c(-c3cccc4[nH]ncc34)cnc(NC3CCNCC3)c2[nH]c1=O	
1.6	1.26	COc1ccc(-c2cnc(NC3CCNCC3)c3[nH]c(=O)c(C)cc23)cn1	
1	3.16	Cc1cc2c(-c3ccncc3)cnc(NC3CCNCC3)c2[nH]c1=O	
1.4	1	CC(=O)N1CCc2cc(-c3cnc(NC4CCNCC4)c4[nH]c(=O)c(C)cc34)ccc21	
0	2	Cc1cc2c(-c3cncc(N)c3)cnc(NC3CCNCC3)c2[nH]c1=O	
0.2	0.794	Cc1cc2c(-c3cncc(NS(C)(=O)=O)c3)cnc(NC3CCNCC3)c2[nH]c1=O	
2.5	0.794	Cc1cc2c(-c3ccccc3)cnc(NC3CCNCC3)c2[nH]c1=O	
